Numbers after ± are expanded uncertainties.
Assay: xn = mol fraction of the nth substance listed
Conditions: 100 kPa, Liquid; for viscosity: Concentric cylinders viscometry; for mass density: Vibrating tube method

CCCCOC(C)=O [butyl ethanoate] + CCCCCCCCO
viscosity (293.15 K, x1 = 0.0809): 8.07 ± 0.41 mPa·s
viscosity (293.15 K, x1 = 0.1595): 7.17 ± 0.36 mPa·s
viscosity (293.15 K, x1 = 0.2399): 6.32 ± 0.32 mPa·s
viscosity (293.15 K, x1 = 0.3499): 5.29 ± 0.27 mPa·s
viscosity (293.15 K, x1 = 0.4399): 4.54 ± 0.23 mPa·s
viscosity (293.15 K, x1 = 0.5626): 3.59 ± 0.18 mPa·s
viscosity (293.15 K, x1 = 0.6499): 2.97 ± 0.15 mPa·s
viscosity (293.15 K, x1 = 0.7401): 2.37 ± 0.12 mPa·s
viscosity (293.15 K, x1 = 0.8499): 1.69 ± 0.09 mPa·s
viscosity (293.15 K, x1 = 0.9395): 1.12 ± 0.06 mPa·s
viscosity (293.15 K, x1 = 1): 0.732 ± 0.037 mPa·s
mass density (293.15 K, x1 = 0.0809): 828.3 ± 10 kg/m3
mass density (293.15 K, x1 = 0.1595): 831.8 ± 10 kg/m3
mass density (293.15 K, x1 = 0.2399): 835.5 ± 10 kg/m3
mass density (293.15 K, x1 = 0.3499): 840.9 ± 10 kg/m3
mass density (293.15 K, x1 = 0.4399): 845.6 ± 10 kg/m3
mass density (293.15 K, x1 = 0.5626): 852.5 ± 10 kg/m3
mass density (293.15 K, x1 = 0.6499): 857.6 ± 10 kg/m3
mass density (293.15 K, x1 = 0.7401): 863.2 ± 10 kg/m3
mass density (293.15 K, x1 = 0.8499): 870.4 ± 10 kg/m3
mass density (293.15 K, x1 = 0.9395): 876.6 ± 10 kg/m3
mass density (293.15 K, x1 = 1): 881.1 ± 10 kg/m3
viscosity (298.15 K, x1 = 0.0809): 6.69 ± 0.34 mPa·s
viscosity (298.15 K, x1 = 0.1595): 5.9 ± 0.3 mPa·s
viscosity (298.15 K, x1 = 0.2399): 5.19 ± 0.26 mPa·s
viscosity (298.15 K, x1 = 0.3499): 4.32 ± 0.22 mPa·s
viscosity (298.15 K, x1 = 0.4399): 3.7 ± 0.19 mPa·s
viscosity (298.15 K, x1 = 0.5626): 2.93 ± 0.15 mPa·s
viscosity (298.15 K, x1 = 0.6499): 2.43 ± 0.12 mPa·s
viscosity (298.15 K, x1 = 0.7401): 1.96 ± 0.1 mPa·s
viscosity (298.15 K, x1 = 0.8499): 1.43 ± 0.07 mPa·s
viscosity (298.15 K, x1 = 0.9395): 0.99 ± 0.05 mPa·s
viscosity (298.15 K, x1 = 1): 0.677 ± 0.034 mPa·s
mass density (298.15 K, x1 = 0.0809): 824.6 ± 10 kg/m3
mass density (298.15 K, x1 = 0.1595): 827.9 ± 10 kg/m3
mass density (298.15 K, x1 = 0.2399): 831.5 ± 10 kg/m3
mass density (298.15 K, x1 = 0.3499): 836.7 ± 10 kg/m3
mass density (298.15 K, x1 = 0.4399): 841.3 ± 10 kg/m3
mass density (298.15 K, x1 = 0.5626): 847.9 ± 10 kg/m3
mass density (298.15 K, x1 = 0.6499): 853 ± 10 kg/m3
mass density (298.15 K, x1 = 0.7401): 858.4 ± 10 kg/m3
mass density (298.15 K, x1 = 0.8499): 865.5 ± 10 kg/m3
mass density (298.15 K, x1 = 0.9395): 871.6 ± 10 kg/m3
mass density (298.15 K, x1 = 1): 876 ± 10 kg/m3
viscosity (303.15 K, x1 = 0.0809): 5.59 ± 0.28 mPa·s
viscosity (303.15 K, x1 = 0.1595): 4.92 ± 0.25 mPa·s
viscosity (303.15 K, x1 = 0.2399): 4.3 ± 0.22 mPa·s
viscosity (303.15 K, x1 = 0.3499): 3.57 ± 0.18 mPa·s
viscosity (303.15 K, x1 = 0.4399): 3.06 ± 0.15 mPa·s
viscosity (303.15 K, x1 = 0.5626): 2.42 ± 0.12 mPa·s
viscosity (303.15 K, x1 = 0.6499): 2.01 ± 0.1 mPa·s
viscosity (303.15 K, x1 = 0.7401): 1.63 ± 0.08 mPa·s
viscosity (303.15 K, x1 = 0.8499): 1.22 ± 0.06 mPa·s
viscosity (303.15 K, x1 = 0.9395): 0.88 ± 0.05 mPa·s
viscosity (303.15 K, x1 = 1): 0.628 ± 0.032 mPa·s
mass density (303.15 K, x1 = 0.0809): 820.8 ± 10 kg/m3
mass density (303.15 K, x1 = 0.1595): 823.9 ± 10 kg/m3
mass density (303.15 K, x1 = 0.2399): 827.4 ± 10 kg/m3
mass density (303.15 K, x1 = 0.3499): 832.4 ± 10 kg/m3
mass density (303.15 K, x1 = 0.4399): 836.8 ± 10 kg/m3
mass density (303.15 K, x1 = 0.5626): 843.2 ± 10 kg/m3
mass density (303.15 K, x1 = 0.6499): 848.1 ± 10 kg/m3
mass density (303.15 K, x1 = 0.7401): 853.4 ± 10 kg/m3
mass density (303.15 K, x1 = 0.8499): 860.3 ± 10 kg/m3
mass density (303.15 K, x1 = 0.9395): 866.4 ± 10 kg/m3
mass density (303.15 K, x1 = 1): 870.9 ± 10 kg/m3
viscosity (308.15 K, x1 = 0.0809): 4.72 ± 0.24 mPa·s
viscosity (308.15 K, x1 = 0.1595): 4.15 ± 0.21 mPa·s
viscosity (308.15 K, x1 = 0.2399): 3.61 ± 0.18 mPa·s
viscosity (308.15 K, x1 = 0.3499): 2.99 ± 0.15 mPa·s
viscosity (308.15 K, x1 = 0.4399): 2.56 ± 0.13 mPa·s
viscosity (308.15 K, x1 = 0.5626): 2.05 ± 0.1 mPa·s
viscosity (308.15 K, x1 = 0.6499): 1.73 ± 0.09 mPa·s
viscosity (308.15 K, x1 = 0.7401): 1.42 ± 0.07 mPa·s
viscosity (308.15 K, x1 = 0.8499): 1.08 ± 0.06 mPa·s
viscosity (308.15 K, x1 = 0.9395): 0.79 ± 0.04 mPa·s
viscosity (308.15 K, x1 = 1): 0.585 ± 0.03 mPa·s
mass density (308.15 K, x1 = 0.0809): 817.1 ± 10 kg/m3
mass density (308.15 K, x1 = 0.1595): 820.1 ± 10 kg/m3
mass density (308.15 K, x1 = 0.2399): 823.4 ± 10 kg/m3
mass density (308.15 K, x1 = 0.3499): 828.1 ± 10 kg/m3
mass density (308.15 K, x1 = 0.4399): 832.3 ± 10 kg/m3
mass density (308.15 K, x1 = 0.5626): 838.5 ± 10 kg/m3
mass density (308.15 K, x1 = 0.6499): 843.2 ± 10 kg/m3
mass density (308.15 K, x1 = 0.7401): 848.4 ± 10 kg/m3
mass density (308.15 K, x1 = 0.8499): 855.3 ± 10 kg/m3
mass density (308.15 K, x1 = 0.9395): 861.2 ± 10 kg/m3
mass density (308.15 K, x1 = 1): 865.7 ± 10 kg/m3
viscosity (313.15 K, x1 = 0.0809): 4.01 ± 0.2 mPa·s
viscosity (313.15 K, x1 = 0.1595): 3.52 ± 0.18 mPa·s
viscosity (313.15 K, x1 = 0.2399): 3.06 ± 0.15 mPa·s
viscosity (313.15 K, x1 = 0.3499): 2.53 ± 0.13 mPa·s
viscosity (313.15 K, x1 = 0.4399): 2.17 ± 0.11 mPa·s
viscosity (313.15 K, x1 = 0.5626): 1.75 ± 0.09 mPa·s
viscosity (313.15 K, x1 = 0.6499): 1.48 ± 0.07 mPa·s
viscosity (313.15 K, x1 = 0.7401): 1.24 ± 0.06 mPa·s
viscosity (313.15 K, x1 = 0.8499): 0.95 ± 0.05 mPa·s
viscosity (313.15 K, x1 = 0.9395): 0.71 ± 0.04 mPa·s
viscosity (313.15 K, x1 = 1): 0.546 ± 0.028 mPa·s
mass density (313.15 K, x1 = 0.0809): 813.3 ± 10 kg/m3
mass density (313.15 K, x1 = 0.1595): 815.9 ± 10 kg/m3
mass density (313.15 K, x1 = 0.2399): 818.9 ± 10 kg/m3
mass density (313.15 K, x1 = 0.3499): 823.3 ± 10 kg/m3
mass density (313.15 K, x1 = 0.4399): 827.3 ± 10 kg/m3
mass density (313.15 K, x1 = 0.5626): 833.3 ± 10 kg/m3
mass density (313.15 K, x1 = 0.6499): 838 ± 10 kg/m3
mass density (313.15 K, x1 = 0.7401): 843.1 ± 10 kg/m3
mass density (313.15 K, x1 = 0.8499): 849.9 ± 10 kg/m3
mass density (313.15 K, x1 = 0.9395): 855.8 ± 10 kg/m3
mass density (313.15 K, x1 = 1): 860.5 ± 10 kg/m3
viscosity (318.15 K, x1 = 0.0809): 3.44 ± 0.17 mPa·s
viscosity (318.15 K, x1 = 0.1595): 3.01 ± 0.15 mPa·s
viscosity (318.15 K, x1 = 0.2399): 2.62 ± 0.13 mPa·s
viscosity (318.15 K, x1 = 0.3499): 2.17 ± 0.11 mPa·s
viscosity (318.15 K, x1 = 0.4399): 1.87 ± 0.09 mPa·s
viscosity (318.15 K, x1 = 0.5626): 1.51 ± 0.08 mPa·s
viscosity (318.15 K, x1 = 0.6499): 1.3 ± 0.07 mPa·s
viscosity (318.15 K, x1 = 0.7401): 1.08 ± 0.05 mPa·s
viscosity (318.15 K, x1 = 0.8499): 0.84 ± 0.04 mPa·s
viscosity (318.15 K, x1 = 0.9395): 0.65 ± 0.03 mPa·s
viscosity (318.15 K, x1 = 1): 0.512 ± 0.026 mPa·s
mass density (318.15 K, x1 = 0.0809): 809.4 ± 10 kg/m3
mass density (318.15 K, x1 = 0.1595): 811.9 ± 10 kg/m3
mass density (318.15 K, x1 = 0.2399): 814.6 ± 10 kg/m3
mass density (318.15 K, x1 = 0.3499): 818.8 ± 10 kg/m3
mass density (318.15 K, x1 = 0.4399): 822.6 ± 10 kg/m3
mass density (318.15 K, x1 = 0.5626): 828.4 ± 10 kg/m3
mass density (318.15 K, x1 = 0.6499): 832.9 ± 10 kg/m3
mass density (318.15 K, x1 = 0.7401): 838 ± 10 kg/m3
mass density (318.15 K, x1 = 0.8499): 844.7 ± 10 kg/m3
mass density (318.15 K, x1 = 0.9395): 850.7 ± 10 kg/m3
mass density (318.15 K, x1 = 1): 855.3 ± 10 kg/m3
viscosity (323.15 K, x1 = 0.0809): 2.97 ± 0.15 mPa·s
viscosity (323.15 K, x1 = 0.1595): 2.6 ± 0.13 mPa·s
viscosity (323.15 K, x1 = 0.2399): 2.26 ± 0.11 mPa·s
viscosity (323.15 K, x1 = 0.3499): 1.86 ± 0.09 mPa·s
viscosity (323.15 K, x1 = 0.4399): 1.6 ± 0.08 mPa·s
viscosity (323.15 K, x1 = 0.5626): 1.3 ± 0.07 mPa·s
viscosity (323.15 K, x1 = 0.6499): 1.12 ± 0.06 mPa·s
viscosity (323.15 K, x1 = 0.7401): 0.96 ± 0.05 mPa·s
viscosity (323.15 K, x1 = 0.8499): 0.76 ± 0.04 mPa·s
viscosity (323.15 K, x1 = 0.9395): 0.6 ± 0.03 mPa·s
viscosity (323.15 K, x1 = 1): 0.485 ± 0.025 mPa·s
mass density (323.15 K, x1 = 0.0809): 805.6 ± 10 kg/m3
mass density (323.15 K, x1 = 0.1595): 807.8 ± 10 kg/m3
mass density (323.15 K, x1 = 0.2399): 810.4 ± 10 kg/m3
mass density (323.15 K, x1 = 0.3499): 814.3 ± 10 kg/m3
mass density (323.15 K, x1 = 0.4399): 817.9 ± 10 kg/m3
mass density (323.15 K, x1 = 0.5626): 823.5 ± 10 kg/m3
mass density (323.15 K, x1 = 0.6499): 828 ± 10 kg/m3
mass density (323.15 K, x1 = 0.7401): 832.9 ± 10 kg/m3
mass density (323.15 K, x1 = 0.8499): 839.5 ± 10 kg/m3
mass density (323.15 K, x1 = 0.9395): 845.5 ± 10 kg/m3
mass density (323.15 K, x1 = 1): 850.1 ± 10 kg/m3

— the NIST ThermoML archive (doi:10.1021/acs.jced.8b00524)
